“And” between values parts separate entries of the source, which are not always exact repeats. Equal values may be shown once. Strand notation (5' to 3'): a small letter for the sugar, then the base; units joined by * are phosphorothioate-linked, units joined directly phosphodiester-linked; [ ] holds rarer units or linkages, { } end groups; capitals alone tell only the bases. k = constrained ethyl (cEt); [5mC] = 5-methylcytosine; d = 2'-deoxy (DNA)
What was measured:
human SMAD7 mRNA [1] = assay: Antisense inhibition of human SMAD7 mRNA expression in Hep3B cells by 3-10-3 cEt gapmers, 10,000 nM, electroporation (Example 2); format: cell-based; conditions: approximately 24 hours
Procedure, shortened: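 Hep3B cells (20,000 per well) were electroporated with 10,000 nM 16-mer 3-10-3 cEt gapmer (phosphorothioate, 5-methylcytosine). After about 24 h, SMAD7 mRNA was quantified by qRT-PCR with primer probe set RTS5062, normalised to RIBOGREEN total RNA, and expressed as percent inhibition versus untreated cells.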

human SMAD7 mRNA [2] = assay: Dose-dependent inhibition of human SMAD7 mRNA expression in Hep3B cells (Example 3, Study 1 and 2); format: cell-based; conditions: electroporation; for % inhibition of SMAD7 mRNA expression: approximately 16 hours; for IC50: Study 2 (740-20000 nM)
Description: The antisense oligonucleotides were tested in a series of experiments that had similar culture conditions as described below.
(§1) Cells were plated at a density of 20,000 cells per well and transfected using electroporation with 0.31 μM, 1.25 μM, 5.00 μM, or 20.00 μM concentrations of antisense oligonucleotide, as specified in the Tables below. ION 483663 was included in the assays for comparison. After a treatment period of approximately 16 hours, RNA was isolated from the cells and SMAD7 mRNA levels were measured by quantitative real-time PCR. Primer probe set RTS5062 was used to measure human SMAD7 mRNA levels. SMAD7 mRNA levels were adjusted according to total RNA content, as measured by RIBOGREEN®. Results are presented as percent inhibition of SMAD7 mRNA expression, relative to untreated control cells.
The half maximal inhibitory concentration (IC50) of each oligonucleotide is also presented.
as §1, with “0.74” for “0.31”, “2.22” for “1.25”, “6.67” for “5.00”, “below.” for “below. ION 483663 was included in the assays for comparison.”

[3] = Hep3B cells, electroporation with 10,000 nM antisense oligonucleotide, SMAD7 mRNA by RT-PCR (RTS5062), relative to untreated control cells
[4] = 740 nM, Study 2, relative to untreated control cells
[5] = Hep3B cells, electroporation with 10,000 nM antisense oligonucleotide, RTS5062, percent inhibition of SMAD7 mRNA relative to untreated control cells
[6] = SMAD7 mRNA, Hep3B cells, 10,000 nM antisense oligonucleotide, electroporation, primer probe set RTS5062, relative to untreated control cells

| Substance | % Inhibition (human SMAD7 mRNA [1]; [3]) | % inhibition of SMAD7 mRNA expression (human SMAD7 mRNA [2]; [4]) | % inhibition of SMAD7 mRNA expression (human SMAD7 mRNA [2]; 2220 nM, Study 2) | % inhibition of SMAD7 mRNA expression (human SMAD7 mRNA [2]; 6670.0 nM, Study 2) | % inhibition of SMAD7 mRNA expression (human SMAD7 mRNA [2]; 20000.0 nM, Study 2) | IC50 (human SMAD7 mRNA [2]) | % Inhibition (human SMAD7 mRNA [1]; [5]) | % Inhibition (human SMAD7 mRNA [1]; [6]) | % inhibition of SMAD7 mRNA expression (human SMAD7 mRNA [1]; Hep3B cells, electroporation with 10,000 nM antisense oligonucleotide, primer probe set RTS5062, relative to untreated control cells) | % Inhibition (human SMAD7 mRNA [1]; Hep3B cells, 10,000 nM antisense oligonucleotide, electroporation, RT-PCR primer probe set RTS5062, relative to untreated control cells) |
| --- | --- | --- | --- | --- | --- | --- | --- | --- | --- | --- |
| 830180 (antisense k[5mC]*kG*kT*dG*dT*dA*d[5mC]*d[5mC]*d[5mC]*dA*dG*d[5mC]*dT*kG*k[5mC]*k[5mC]) [compound 830180] | 62% | 21% | 39% | 43% | 64% | 8 µM |  |  |  |  |
| 799583 (kA*kA*kG*dA*d[5mC]*dA*dA*dA*d[5mC]*d[5mC]*dT*dT*d[5mC]*k[5mC]*kG*kA; antisense) [compound 799583] |  | 26% and 31% | 61% and 46% | 73% and 59% | 65% and 83% | 3 µM | 74% | 74% |  |  |
| 772560 (antisense kT*kT*kG*d[5mC]*dA*d[5mC]*dA*dG*d[5mC]*dA*dG*dG*dA*kG*kG*kG) [compound 772560] |  | 0% | 32% | 57% | 82% | 5 µM |  |  | 66% |  |
| 799722 (antisense kG*k[5mC]*kA*dG*dA*dG*dT*dG*dA*dG*dA*dA*d[5mC]*kA*kA*kG) [compound 799722] |  | 17% | 38% | 53% | 82% | 5 µM | 67% |  |  |  |
| 799964 (antisense k[5mC]*k[5mC]*k[5mC]*d[5mC]*dT*dT*dA*dG*d[5mC]*dG*d[5mC]*dA*dT*kT*k[5mC]*kT) [compound 799964] | 55% | 4% | 15% | 46% | 61% | > 20 µM |  |  |  |  |
| 798696 (antisense kT*k[5mC]*k[5mC]*d[5mC]*d[5mC]*d[5mC]*dT*dG*d[5mC]*dG*d[5mC]*d[5mC]*d[5mC]*kT*k[5mC]*k[5mC]) [compound 798696] | 82% | 0% | 33% | 58% | 66% | < 0.7 µM |  |  |  |  |
| 799904 (antisense kA*k[5mC]*kT*d[5mC]*dA*dG*dA*dG*d[5mC]*dA*dG*d[5mC]*dT*k[5mC]*kT*k[5mC]) [compound 799904] | 61% | 3% | 9% | 23% | 62% | 8 µM |  |  |  |  |
| 790736 (kT*k[5mC]*kA*dA*dA*d[5mC]*dT*dT*dT*dG*dA*dA*dG*k[5mC]*k[5mC]*kT; antisense) [compound 790736] |  | 32% | 56% | 68% | 74% | > 20 µM |  | 60% |  |  |
| 790488 (kT*kT*k[5mC]*d[5mC]*dG*dA*dG*dG*dA*dA*dT*dG*d[5mC]*k[5mC]*kT*kG; antisense) [compound 790488] |  | 12% | 34% | 46% | 67% | 7 µM |  | 81% |  |  |
| 798733 (antisense k[5mC]*kG*k[5mC]*dG*dG*d[5mC]*dT*dG*dG*d[5mC]*dG*dG*dG*kT*kG*kG) [compound 798733] | 72% | 58% | 84% | 88% | 95% | 4 µM |  |  |  |  |
| 799743 (antisense k[5mC]*kT*kG*dG*dA*dG*dT*dT*dA*dT*dT*d[5mC]*dT*k[5mC]*kA*kA) [compound 799743] |  | 0% | 43% | 44% | 64% | 5 µM | 51% |  |  |  |
| 799467 (antisense kG*k[5mC]*kA*dG*dA*d[5mC]*dA*dG*dA*dA*dG*d[5mC]*dT*k[5mC]*kT*kA) [compound 799467] | 69% | 4% | 27% | 65% | 57% | > 20 µM |  |  |  |  |
| 772732 (kG*kA*kT*dA*dT*dT*dT*dA*dG*d[5mC]*dT*dG*dT*k[5mC]*kA*kG; antisense) [compound 772732] |  | 27% | 60% | 63% | 68% | 3 µM |  | 58% |  |  |
| 799511 (antisense kT*kA*kA*dT*dG*dA*d[5mC]*dA*dA*dT*dT*d[5mC]*d[5mC]*kA*kG*k[5mC]) [compound 799511] | 65% | 0% | 0% | 35% | 65% | 3 µM |  |  |  |  |
| 829767 (antisense kG*kG*kA*dG*dG*d[5mC]*dA*d[5mC]*dG*d[5mC]*dG*dG*dT*kG*k[5mC]*kG) [compound 829767] |  | 5% | 6% | 36% | 49% | 3 µM |  | 66% |  |  |
| 799854 (kG*k[5mC]*k[5mC]*dA*dA*dG*dT*dG*dT*d[5mC]*d[5mC]*dA*dT*k[5mC]*kA*kA; antisense) [compound 799854] |  | 21% | 56% | 80% | 79% | 5 µM |  |  |  | 45% |
| 830135 (antisense kA*kA*kG*dT*dA*d[5mC]*dA*dA*dT*d[5mC]*dT*d[5mC]*d[5mC]*kT*kG*kG) [compound 830135] | 64% | 16% | 44% | 56% | 71% | 5 µM |  |  |  |  |
